Where “and” joins values, the source holds several entries; their conditions need not be identical. Equal values may be shown once.
Key:
[1] = molecular target: Glycogen synthase kinase-3 beta (Homo sapiens, UniProt P49841); assay: TR-FRET Assay
In short: (§1)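 Enzyme and test compound were first incubated together for 30 minutes in assay buffer. The kinase reaction followed and was stopped with EDTA. The pSer641 signal was read by time-resolved FRET.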

[2] = molecular target: Glycogen synthase kinase-3 alpha (Homo sapiens, UniProt P49840); assay: TR-FRET Assay
Sequence of Glycogen synthase kinase-3 alpha (P49840 whole entry): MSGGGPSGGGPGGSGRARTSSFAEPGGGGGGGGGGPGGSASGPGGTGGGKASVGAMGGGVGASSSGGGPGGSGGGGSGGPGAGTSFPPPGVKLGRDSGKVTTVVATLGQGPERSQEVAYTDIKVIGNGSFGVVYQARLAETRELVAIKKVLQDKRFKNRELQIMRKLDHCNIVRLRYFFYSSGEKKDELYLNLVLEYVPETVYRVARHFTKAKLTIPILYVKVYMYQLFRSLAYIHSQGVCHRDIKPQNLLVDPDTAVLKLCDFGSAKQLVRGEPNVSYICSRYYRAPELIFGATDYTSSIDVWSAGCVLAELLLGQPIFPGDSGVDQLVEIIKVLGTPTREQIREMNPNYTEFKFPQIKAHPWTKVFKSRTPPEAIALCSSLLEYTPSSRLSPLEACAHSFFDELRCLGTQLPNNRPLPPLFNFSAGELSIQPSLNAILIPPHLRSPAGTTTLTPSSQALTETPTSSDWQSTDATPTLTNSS
In short: as §1

Sequence of Glycogen synthase kinase-3 beta (P49841 whole entry): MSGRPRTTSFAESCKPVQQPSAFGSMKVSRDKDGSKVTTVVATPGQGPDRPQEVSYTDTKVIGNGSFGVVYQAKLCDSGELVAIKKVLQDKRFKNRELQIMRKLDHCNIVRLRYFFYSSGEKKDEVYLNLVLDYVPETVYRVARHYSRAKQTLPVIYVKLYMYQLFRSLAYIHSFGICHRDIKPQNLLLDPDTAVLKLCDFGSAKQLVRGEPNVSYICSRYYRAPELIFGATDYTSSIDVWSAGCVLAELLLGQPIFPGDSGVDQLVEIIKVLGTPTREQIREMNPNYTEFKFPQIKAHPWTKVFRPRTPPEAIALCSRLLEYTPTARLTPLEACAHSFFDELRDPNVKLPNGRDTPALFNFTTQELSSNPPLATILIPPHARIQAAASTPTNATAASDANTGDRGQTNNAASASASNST

**Q.** Which IC50 [1] does the source give for `CC[C@@]1(c2cccc(-c3cc(C)ncc3C)c2)C2=C(CC(C)(C)NC2=O)NC2N=NC(C(F)(F)F)=C21` (some centres not stated) [US20250313563, Compound 947364] here?
**A.** 100 to 1000 nM

**Q.** What about the IC50 [2] of the same compound?
**A.** 100 to 1000 nM

**Q.** Which results are given for `CCC1(c2cccc(N(C)c3cccc(C(F)(F)F)n3)c2)C2=CN=NC2NC2=C1C(=O)CC(C)(C)C2` (configuration not stated) [US20250313563, Compound 913122]?
**A.** IC50 [1]: 100 to 1000 nM; IC50 [2]: 100 to 1000 nM

**Q.** Which IC50 [1] does the source give for `CC[C@@]1(c2cccc(C(F)(F)F)c2)C2=CN=NC2NC2=C1C(=O)N(c1ccsc1)CC2` (some centres not stated) [US20250313563, Compound 952636] here?
**A.** > 5000 nM

**Q.** What about the IC50 [2] of the same compound?
**A.** > 5000 nM

**Q.** For `O=C1C[C@H](C(F)(F)F)CC2=C1C1(CCOCC1)C1=C(N=NC1)N2` [US20250313563, Compound 901477], which IC50 [1] is on record?
**A.** 1000 to 5000 nM

**Q.** And the IC50 [2]?
**A.** 100 to 1000 nM

**Q.** For `Cn1cc(-c2cccc([C@@]3(C)C4=C(CC(C)(C)CC4=O)NC4=C3C(CC(C)(C)C)N=N4)c2)cn1` (some centres not stated) [US20250313563, Compound 126367], which IC50 [1] is on record?
**A.** > 5000 nM

**Q.** What about the IC50 [2] of the same compound?
**A.** > 5000 nM

**Q.** `CC[C@@]1(c2cccc(-c3ccncc3C)c2)C2=CN=NC2NC2=C1C(=O)N[C@@]1(CCCOC1)C2` (some centres not stated) [US20250313563, Compound 947909] was tested. Which IC50 [1] did it give?
**A.** 1000 to 5000 nM

**Q.** And the IC50 [2]?
**A.** 100 to 1000 nM

**Q.** For `CCc1cccc(C2(CC)C3=C(N=NC3)NC3=C2C(=O)CC(C)(C)C3)c1` (configuration not stated) [US20250313563, Compound 949083], which IC50 [1] is on record?
**A.** 100 to 1000 nM

**Q.** And the IC50 [2]?
**A.** < 100 nM

**Q.** How did the IC50 [1] turn out when `CC[C@@]1(c2cccc(-c3cnn(CC(=O)N(C)C)c3)c2)C2=CN=NC2NC2=C1C(=O)NC(C)(C)C2` (some centres not stated) [US20250313563, Compound 952208] was run?
**A.** > 5000 nM

**Q.** And the IC50 [2]?
**A.** 100 to 1000 nM

**Q.** With `CCC1(c2cccc(C(F)(F)F)c2)C2=C(N=NC2)NC2=C1C(=O)N(C)C2(C)C` (configuration not stated) [US20250313563, Compound 913198] as the compound, how does the IC50 [1] read?
**A.** 100 to 1000 nM

**Q.** What about the IC50 [2] of the same compound?
**A.** < 100 nM

**Q.** Which results are given for `CC[C@]1(c2cccc(-c3ccncc3C)c2)C2=C(CC(C)(C)CC2=O)NC2N=NC(C(F)(F)F)=C21` (some centres not stated) [US20250313563, Compound 947324]?
**A.** IC50 [1]: < 100 nM; IC50 [2]: < 100 nM

**Q.** How did the IC50 [1] turn out when `CC[C@@]1(c2cccc(C(F)(F)F)c2)C2=C(N=NC2)NC2=C1C(=O)N(Cc1ccccc1)[C@H]2C` [US20250313563, Compound 930333] was run?
**A.** > 5000 nM

**Q.** What about the IC50 [2] of the same compound?
**A.** > 5000 nM

**Q.** Which IC50 [1] does the source give for `COc1cccc(S(=O)(=O)N2CCC3(CC2)C2=C(N=NC2)NC2=C3C(=O)CC(C)(C)C2)c1F` [US20250313563, Compound 945656] here?
**A.** < 100 nM and 100 to 1000 nM

**Q.** What about the IC50 [2] of the same compound?
**A.** < 100 nM

**Q.** With `CC[C@@]1(c2cccc(C(C)C)c2)C2=C(CC(C)(C)NC2=O)NC2N=NC(C)=C21` (some centres not stated) [US20250313563, Compound 949646] as the compound, how does the IC50 [1] read?
**A.** > 5000 nM

**Q.** What about the IC50 [2] of the same compound?
**A.** > 5000 nM

**Q.** Which results are given for `CC[C@]1(c2cccc(-c3ccnc(N4CCCCC4)c3)c2)C2=CN=NC2NC2=C1C(=O)NC(C)(C)C2` (some centres not stated) [US20250313563, Compound 948646]?
**A.** IC50 [1]: > 5000 nM; IC50 [2]: 1000 to 5000 nM

**Q.** How did the IC50 [1] turn out when `CC[C@]1(c2cccc(C(F)(F)F)c2)C2=C(N=NC2)NC2=C1C(=O)N(c1ccccc1)C2` [US20250313563, Compound 945376] was run?
**A.** > 5000 nM

**Q.** And the IC50 [2]?
**A.** > 5000 nM

**Q.** With `CC[C@]1(c2cccc(N(C)c3cccc(F)n3)c2)C2=CN=NC2NC2=C1C(=O)CC(C)(C)C2` (some centres not stated) [US20250313563, Compound 932636] as the compound, how does the IC50 [1] read?
**A.** < 100 nM

**Q.** What about the IC50 [2] of the same compound?
**A.** < 100 nM

**Q.** What does the source list for `CCC1(c2cccc(S(=O)(=O)CC3CC3)c2)C2=CN=NC2NC2=C1C(=O)CC(C)(C)C2` (configuration not stated) [US20250313563, Compound 913257]?
**A.** IC50 [1]: < 100 nM; IC50 [2]: < 100 nM

**Q.** What does the source list for `CC1(C)CC(=O)C2=C(C1)NC1=C(CN=N1)[C@]21C[C@@]2(CCN(CC(F)(F)F)C2)C1` [US20250313563, Compound 913138]?
**A.** IC50 [1]: 100 to 1000 nM; IC50 [2]: 100 to 1000 nM

**Q.** For `CC1(C)CC(=O)C2=C(C1)NC1=C(CN=N1)[C@]21CCN(S(=O)(=O)CC2CC2)C1` [US20250313563, Compound 943481], which IC50 [1] is on record?
**A.** < 100 nM and 100 to 1000 nM

**Q.** And the IC50 [2]?
**A.** < 100 nM and 100 to 1000 nM

**Q.** How did the IC50 [1] turn out when `CC[C@@]1(c2cccc(C(F)(F)F)c2)C2=CN=NC2NC2=C1C(=O)N[C@H](C)C2` (some centres not stated) [US20250313563, Compound 912098] was run?
**A.** 100 to 1000 nM

**Q.** And the IC50 [2]?
**A.** < 100 nM

**Q.** `CC1(C)CC(=O)C2=C(C1)NC1=C(CN=N1)C2(C)C` [US20250313563, Compound 786065] was tested. Which IC50 [1] did it give?
**A.** > 1670 nM

**Q.** And the IC50 [2]?
**A.** 1000 to 5000 nM

**Q.** With `CCc1cccc(N(C)c2cccc([C@]3(CC)C4=CN=NC4NC4=C3C(=O)CC(C)(C)C4)c2)n1` (some centres not stated) [US20250313563, Compound 945730] as the compound, how does the IC50 [1] read?
**A.** 100 to 1000 nM

**Q.** And the IC50 [2]?
**A.** < 100 nM

**Q.** Which results are given for `CCC1(c2cccc(-c3ccnn3C)c2)C2=C(CC(C)(C)CC2=O)NC2N=NC(C)=C21` (configuration not stated) [US20250313563, Compound 883992]?
**A.** IC50 [1]: < 100 nM; IC50 [2]: < 100 nM

**Q.** `Cc1ccc(CC(=O)N2CC3(C2)CC2(CO3)C3=C(N=NC3)NC3=C2C(=O)CC(C)(C)C3)cc1` (configuration not stated) [US20250313563, Compound 947281] was tested. Which IC50 [1] did it give?
**A.** < 100 nM and 100 to 1000 nM

**Q.** And the IC50 [2]?
**A.** < 100 nM and 100 to 1000 nM

**Q.** For `CC[C@@]1(c2cccc(C3=CN=NC3)c2)C2=C(CC(C)(C)NC2=O)NC2N=NC(C(F)(F)F)=C21` (some centres not stated) [US20250313563, Compound 948312], which IC50 [1] is on record?
**A.** 100 to 1000 nM

**Q.** What about the IC50 [2] of the same compound?
**A.** < 100 nM

**Q.** Which IC50 [1] does the source give for `CC[C@]1(c2cccc(-c3cnn(C)c3)c2)C2=C(CC(C)(C)NC2=O)NC2N=NC(C)=C21` (some centres not stated) [US20250313563, Compound 945611] here?
**A.** > 5000 nM

**Q.** And the IC50 [2]?
**A.** > 5000 nM

— BindingDB's records for patent US20250313563 (The Broad Institute, 2025)
